In ChEMBL document CHEMBL5726546, “Dihydroquinoline pyrazolyl compounds” (2017) one finds EC50 data, which are given here for 6 compounds.

The term EC50 denotes the concentration needed to bring the measured effect to its halfway point.

The target in series [1] is T1, Cytochrome P450 11B1, mitochondrial (Homo sapiens, UniProt P15538).
T1 sequence (P15538 whole entry): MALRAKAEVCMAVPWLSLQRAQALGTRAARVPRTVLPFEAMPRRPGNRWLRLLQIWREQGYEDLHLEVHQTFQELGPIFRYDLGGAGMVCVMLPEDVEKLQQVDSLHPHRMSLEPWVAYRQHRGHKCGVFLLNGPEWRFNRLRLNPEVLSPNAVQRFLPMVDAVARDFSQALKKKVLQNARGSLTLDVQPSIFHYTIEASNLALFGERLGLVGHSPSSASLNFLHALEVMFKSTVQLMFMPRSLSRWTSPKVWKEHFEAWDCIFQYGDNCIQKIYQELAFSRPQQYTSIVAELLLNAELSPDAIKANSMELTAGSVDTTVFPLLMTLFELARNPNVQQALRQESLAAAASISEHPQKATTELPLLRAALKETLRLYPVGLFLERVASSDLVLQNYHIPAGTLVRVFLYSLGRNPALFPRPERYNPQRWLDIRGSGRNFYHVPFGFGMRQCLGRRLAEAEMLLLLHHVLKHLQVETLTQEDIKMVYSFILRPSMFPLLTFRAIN
In words: (§1) Inhibition Assay: The expression plasmids contains the ORF for either human/cyno CYP11B1 or CYP11B2 under the control of a suitable promoter (CMV-promoter) and a suitable resistance marker (neomycin). Using standard techniques the expression plasmid is transfected into G-402 cells and these cells are then selected for expressing the given resistance markers. Individual cell-clones are then selected and assessed for displaying the desired enzymatic activity using 11-Deoxycorticosterone (Cyp11B2) or 11-Deoxycortisol (Cyp11B1) as a substrate.G-402 cells expressing CYP11 constructs were established as described above and maintained in McCoy's 5a Medium Modified, ATCC Catalog No. 30-2007 containing 10% FCS and 400 μg/ml G418 (Geneticin) at 37° C. under an atmosphere of 5% CO2/95% air. Cellular enzyme assays were performed in DMEM/F12 medium containing 2.5% charcoal treated FCS and appropriate concentration of substrate (0.3-10 uM 11-Deoxycorticosterone, 11-Deoxycortisol or Corticosterone). For assaying enzymatic activity, cells were plated onto 96 well plates and incubated for 16 h. An aliquot of the supernatant is then transferred and analyzed for the concentration of the expected product (Aldosterone for CYP11B2; Cortisol for CYP11B1). The concentrations of these steroids can be determined using HTRF assays from CisBio analyzing either Aldosterone or Cortisol.

The target in series [2] is T2, Cytochrome P450 11B2, mitochondrial (Homo sapiens, UniProt P19099).
T2 sequence (P19099 whole entry): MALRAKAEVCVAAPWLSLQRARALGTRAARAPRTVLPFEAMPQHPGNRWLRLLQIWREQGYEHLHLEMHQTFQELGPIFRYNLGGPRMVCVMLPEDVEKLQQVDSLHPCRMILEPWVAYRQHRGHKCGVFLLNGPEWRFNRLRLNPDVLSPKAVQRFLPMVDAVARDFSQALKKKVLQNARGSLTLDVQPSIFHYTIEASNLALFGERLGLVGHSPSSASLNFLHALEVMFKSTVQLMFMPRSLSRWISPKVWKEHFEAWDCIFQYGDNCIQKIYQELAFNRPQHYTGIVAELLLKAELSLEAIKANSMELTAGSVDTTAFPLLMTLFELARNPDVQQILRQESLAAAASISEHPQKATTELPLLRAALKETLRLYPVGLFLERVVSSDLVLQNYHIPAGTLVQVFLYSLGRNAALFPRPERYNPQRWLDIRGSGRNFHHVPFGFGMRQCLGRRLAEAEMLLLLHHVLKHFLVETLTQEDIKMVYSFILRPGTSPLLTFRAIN
The description is as §1.

SMILES strings stand for the structures.

`CN1C(=O)CCc2c1ccc(-c1n[nH]cc1CC1CCN(C(=O)c3ccnn3C)CC1)c2F` displayed an EC50 in series [1] of 0.076 nM.
In the case of `CN1C(=O)CCc2c1ccc(-c1n[nH]cc1CC1CCN(S(=O)(=O)c3ccnn3C)CC1)c2F`, the EC50 was found to be 0.704 nM in series [1] and 0.014 nM in series [2].
Compound `CC(=O)N1CCC(C(C)c2c[nH]nc2-c2ccc3c(c2F)CCC(=O)N3C)CC1` (racemic) yielded an EC50 in series [1] of 0.049 nM.
Still for that read-out and setting: for `CC(=O)N1CCC(C(C)c2c[nH]nc2-c2cc3c(cc2F)N(C)C(=O)CC3)CC1` (racemic) the value was 0.067 nM.
As for `CC(=O)N1CCC([C@@H](C)c2c[nH]nc2-c2ccc3c(c2F)CCC(=O)N3C)CC1` (single isomer, unassigned), the values for the EC50 in series [1] and in series [2] were 0.074 nM and 0.012 nM, respectively.
Consider `CC(=O)N1CCC([C@H](C)c2c[nH]nc2-c2ccc3c(c2F)CCC(=O)N3C)CC1` (single isomer, unassigned), for which the EC50 in series [2] came out at 0.064 nM.
